Series [1] deals with microglia. As to the kind of experiment: CCK-8 microglial viability. Type of series: cell-based, mouse. An excerpt: (§1) Primary cortical neurons were isolated from embryonic day 16–18 (E16–E18) C57BL/6 mouse embryos as previously described, and cultured in Neurobasal medium supplemented with B27 and GlutaMAX (Gibco).Primary microglial cells were isolated from the cortices of neonatal (day 1) C57BL/6J mice. After disinfection with 75 % ethanol, the skin and skull were removed, and the brains were placed in ice-cold HBSS. The meninges were peeled off, the cortex was collected, and the hippocampus was discarded. Tissues were digested with 0.25 % trypsin at 37 °C for 12 min, centrifuged at 1200 rpm for 5 min, and resuspended in complete medium. The suspension was transferred to a T75 flask with 15 mL of complete medium. After 14 days, microglial cells were harvested by shaking the flask at 270–280 rpm for 30 min, and the supernatant was collected. To induce phenotyping, microglial cells were treated with LPS (100 ng/mL) and IFN-γ (20 ng/mL) for 48 h to induce the M1 phenotype, or IL-4 (20 ng/mL) for 48 h to induce the M2 phenotype. […]
Microglia were exposed to 1, 10 100 μM concentrations of TCC or TC and PBS respectively for 24 h, and cell viability was measured. […] Cell viability was assessed using the Cell Counting Kit-8 (C0038, Beyotime) according to the manufacturer’s protocol. Absorbance at 450 nm was measured to determine cell viability.

For series [2] the following is noted: in the brain following ICH, increased BBB permeability.
The test system of series [3] is microglia. Put plainly: IL-6 release from CIRP-stimulated microglia, ELISA (TCC vs TC). Type of series: cell-based, mouse. The conditions noted are these: peptides 10 μM pre-treated 0.5 h, then rmCIRP 1 μg/mL 24 h, n = 3. For orientation: ELISA stands for enzyme-linked immunosorbent assay.
Protocol: To validate the effects of TCC and TC in vitro, microglial cells were pre-treated with the peptides (10 μM) for 0.5 h, followed by stimulation with recombinant mouse CIRP (rmCIRP, 1 μg/mL) for 24 h to establish an inflammation model.
ELISA was used to quantify CIRP, MD2, IL-6, and TNF-α concentrations in blood and cerebrospinal fluid samples. Samples were processed and stored under standardized conditions to preserve protein integrity. Each target protein was measured using commercial ELISA kits, following the manufacturer’s instructions: Mouse CIRBP ELISA Kit (CSB-EL005440MO, CUSABIO), Mouse TNF-α ELISA Kit (EK282, Lianke Bio), Mouse IL-6 ELISA Kit (CSB-E04639m, CUSABIO), and Rat TNF-α ELISA Kit (EK382, Lianke Bio).
After disinfection with 75 % ethanol, the skin and skull were removed, and the brains were placed in ice-cold HBSS. The meninges were peeled off, the cortex was collected, and the hippocampus was discarded. Tissues were digested with 0.25 % trypsin at 37 °C for 12 min, centrifuged at 1200 rpm for 5 min, and resuspended in complete medium. The suspension was transferred to a T75 flask with 15 mL of complete medium. After 14 days, microglial cells were harvested by shaking the flask at 270–280 rpm for 30 min, and the supernatant was collected. […] CIRP (1 μg/mL for 24 h) was added to the microglia, which were divided into PBS, CIRP, and CIRP + TCC groups. […]
In series [4] the test system is microglia. Put plainly: Microglial phagocytosis of CFSE-labeled RBCs. It is filed as cell-based, mouse. The conditions noted are these: rmCIRP 24 h, then CFSE-labeled erythrocytes.
From the text: as §1, with “collected.” for “collected. To induce phenotyping, microglial cells were treated with LPS (100 ng/mL) and IFN-γ (20 ng/mL) for 48 h to induce the M1 phenotype, or IL-4 (20 ng/mL) for 48 h to induce the M2 phenotype.”
The functional characteristics of microglial cells encompass not only the release of inflammatory cytokines but also their phagocytic activity. […] RBCs were labeled with either 0.5 μM or 5 μM CFSE, and immunofluorescence analysis determined that 5 μM CFSE was the optimal concentration for labeling (Fig. 7G). […]
RBCs were isolated via density gradient centrifugation and labeled with CFSE before being stereotactically injected into the right striatum. […] Cell viability was assessed using a Fixable Viability Dye, and flow cytometric analysis was subsequently performed. […]

The target in series [5] is T1, recombinant human IL-6 receptor alpha (IL-6Rα) (human, UniProt P08887 20-365).
T1 construct: Interleukin-6 receptor subunit alpha, human; UniProtKB P08887 is printed for the docking; also called rhIL-6Rα; rhIL-6R; source: recombinant
T1 sequence (looked up): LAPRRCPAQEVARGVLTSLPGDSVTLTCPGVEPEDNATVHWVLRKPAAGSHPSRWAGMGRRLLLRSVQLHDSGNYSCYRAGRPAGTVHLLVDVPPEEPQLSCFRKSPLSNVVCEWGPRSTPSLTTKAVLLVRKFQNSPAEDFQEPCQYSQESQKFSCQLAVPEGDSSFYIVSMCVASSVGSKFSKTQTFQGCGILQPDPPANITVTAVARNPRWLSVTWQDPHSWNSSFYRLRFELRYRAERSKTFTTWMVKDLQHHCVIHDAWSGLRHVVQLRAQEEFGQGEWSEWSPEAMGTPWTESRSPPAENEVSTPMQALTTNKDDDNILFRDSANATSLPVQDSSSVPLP
As to the kind of experiment: SPR; human IL-6Rα immobilised on a CM5 chip; human CIRBP or TCC as analyte. Conditions: both partners purified. For orientation: In SPR one partner is held on a chip, and binding of the other changes the refractive index at the surface.

Like-named read-outs stand apart in the source and are kept apart here. No end group written: not given here.

On to “YGRKKRRQRRRGRGFSRGGGDRGYGGKFERQKILDQRFFE [TCC]”, for which the microglial viability result in the series on microglia [1] (10 μM, 24 h, CCK-8, n = 3) is “did not affect microglial viability”. The “ability to cross the BBB” value in series [2] was “effectively traverse the BBB”.
As to YGRKKRRQRRRRFESRSGGYGGSRD [TC], the microglial viability result in the series with microglia [1] was “did not affect microglial viability”. Besides, in the series with microglia [3], the “IL-6 release in culture supernatants” value is on record as “reduced IL-6 release”.

B1: rmCIRP: recombinant mouse CIRP (rmCIRP, 1 μg/mL) (protein, UniProt P60824 1-172, looked up)
Cold-inducible RNA-binding …: MASDEGKLFVGGLSFDTNEQALEQVFSKYGQISEVVVVKDRETQRSRGFGFVTFENIDDAKDAMMAMNGKSVDGRQIRVDQAGKSSDNRSRGYRGGSAGGRGFFRGGRSRGRGFSRGGGDRGYGGGRFESRSGGYGGSRDYYASRSQGGSYGYRSSGGSYRDSYDSYATHNE
On to B1, for which the “phagocytosis of RBCs, Cirbp^−/− vs WT microglia” value in the series with microglia [4] is given as “greater capacity to phagocytize CFSE-labeled erythrocytes compared to WT microglia”.

B2: Tat-CIRP-CMA peptide (peptide)
peptide: YGRKKRRQRRRGRGFSRGGGDRGYGGKFERQKILDQRFFE
notes: also called TCC; source: synthetic peptide (Heifei KS-V Peptide Biotechnology, China)
The Kd is the equilibrium constant for the complex coming apart. As to B2, the Kd in series [5] is 4.12 nM.
